EP0224257A1, “Stabilized benzimidazole derivatives” (SYNTEX (U.S.A.) INC., priority 1985, dated 1987)

Experiment: Blood plasma levels after oral administration to dogs
Format: in vivo
Details: 10 mg/kg, compared with oxfendazole in commercially available form
Protocol: Dogs were administered orally either amorphous or crystalline oxfendazole at a dose of 10 mg/kg.
Blood samples were drawn and analyzed before administration and on days 1, 2, 3, 7, 10 and 13 following administration. The area under the curve was calculated for plasma concentration vs time profile.

COC(=O)Nc1nc2ccc([S+]([O-])c3ccccc3)cc2[nH]1 (stereo not shown) [amorphous oxfendazole, methyl 5-(phenylsulfinyl)-1H-benzimidazol-2-yl carbamate]
plasma level of oxfendazole: higher plasma level
